Assay results from a melting point compilation (Tetko et al.; mined from patent text by program, amines drawn as free bases though some values may be those of a salt).

First: CC(C)(C#N)c1cc(C=O)cc(C(C)(C)C#N)c1
Second: CC(C)(C)Sc1c(C#N)nn(-c2c(Cl)cc(C(F)(F)F)cc2Cl)c1N
The melting point of the first is lower: 145 to 147 °C for the first, 196 to 198 °C for the second.

First: Cc1nc[nH]c1CSCCNC(=N)N[N+](=O)[O-]
Second: CCCOc1ccc(CC(=O)NCC(=O)OC)cc1Cl
The melting point of the first is higher: 146 to 147 °C for the first, 76 to 80 °C for the second.

First: COC(=O)Nc1nc(C)c(-c2nc3ccccc3c(=O)n2-c2cccc(C)c2)s1
Second: Cc1ncn(-c2ccccc2CNC(=O)c2nc3n(c(=O)c2OCc2ccccc2)CCOC3(C)C)n1
The melting point of the first is higher: 232 to 233 °C for the first, 213 to 214 °C for the second.

First: CCCCCCCCCCCCOc1ccc(C(=O)c2ccccc2)cc1
Second: Cc1ccc(OCCCCOc2ccc(C)cc2)cc1
The melting point of the first is lower: 63 to 64 °C for the first, 104 °C for the second.

First: O=C(O)c1cc(O)cc2cc(-c3ccc(O)cc3)oc12
Second: Cc1ccc(Nc2c(N3CCCC3)cc(C(=O)O)cc2S(N)(=O)=O)cc1
The melting point of the first is higher: 260 to 262 °C for the first, 188 to 191 °C for the second.

First: CC(=O)N1CCC2(CC1)CC(=O)c1cc(S(C)(=O)=O)ccc1O2
Second: COC(=O)c1ccc(C(F)(F)F)cc1N(S(C)(=O)=O)S(C)(=O)=O
The melting point of the first is lower: 105 to 110 °C for the first, 221 to 225 °C for the second.

First: O=C(O)c1cc2c(s1)-c1cc(F)ccc1CC2
Second: Cc1csc(=S)n1-c1ccc(F)cc1N
The melting point of the first is higher: 240 to 242 °C for the first, 138 °C for the second.

First: N#CNC(=NC1CCN(Cc2ccccc2)CC1)NC1CCc2ccccc21 (configuration not stated)
Second: OC1(c2cccc(OCc3ccccc3)c2)CCOCC1
The melting point of the first is higher: 159 to 160 °C for the first, 84 to 86 °C for the second.

CCCCOc1nc(O)ns1 and COc1cccnc1OCC(O)CO (configuration not stated) cannot be ordered by melting point: 62 °C for the first, 62 to 65 °C for the second.

First: CC(=O)Oc1ccc(Br)cc1Cc1cc(Cl)cc(Cc2cc(Br)ccc2O)c1OC(C)=O
Second: COC(=O)C(=O)c1ccc(OCCOc2ccc3ccccc3c2)cc1C
The melting point of the first is higher: 190 to 192 °C for the first, 118 to 120 °C for the second.

First: Cc1cc(CN2CCN(c3ccc(C(=O)NC4CC4)cc3)CC2)cc2c1OC(C)C(=O)N2 (configuration not stated)
Second: CCc1nc(N)nc(N)c1N1CCN(c2ccc(C(=O)O)cc2)CC1
The melting point of the first is lower: 257 to 263 °C for the first, > 300 °C for the second.

First: COc1ccc2c(c1)C1CCN(C)C(C1)N2C (configuration not stated)
Second: COc1ccccc1-c1ccc2c(c1)CC[C@H]1N(C)C(=O)CC[C@]21C
The melting point of the first is lower: 72 to 73.5 °C for the first, 152 to 156 °C for the second.

Compared with Cc1c(NC(=O)c2ccc(-c3ccc(F)cc3)cc2)ccc2cc(C(O)c3ccccc3)cnc12 (configuration not stated), CC(C)c1nc2ccn(Cc3ccccc3)c(=O)c2n1Cc1cccc(-c2ccc(C(=N)N)cc2)c1 is higher in melting point: 182 to 186 °C for the first, > 300 °C for the second.

First: COc1cccc2c1nc(-c1c(F)cccc1F)n2Cc1ccccc1
Second: CCc1c(C(=O)C(N)=O)c2cc(OCCCC(=O)O)ccc2n1Cc1ccccc1
The melting point of the first is lower: 139 to 141 °C for the first, 173 to 175 °C for the second.

First: CCN(c1ccc(C(F)(F)F)cc1)C1CCN(c2ccc(OC[C@H]3CCn4cc([N+](=O)[O-])nc4O3)cc2)CC1
Second: Cc1cc(SC(C)c2ccc3cn(-c4ccc(C(F)(F)F)cc4)nc3c2)ccc1OC(C)(C)C(=O)O (racemic)
The melting point of the first is higher: 206 °C for the first, 114 to 116 °C for the second.

Compared with CNc1nn2nnnc2c2c1CCCC2, COc1cc(Nc2nccc(-c3ccc(N4CCCCC4CO)nc3)n2)cc(OC)c1OC (configuration not stated) is lower in melting point: 318 °C for the first, 93 °C for the second.

Compared with O=c1[nH]c(=S)[nH]cc1-c1ccccc1, c1ccc(-c2cnns2)cc1 is lower in melting point: 269 to 271 °C for the first, 46 to 48 °C for the second.

First: C#Cc1ccc2c(c1)C(c1ccccc1Cl)=NCc1nnc(C)n1-2
Second: COc1cccc(C2=C(CN(C)C)COc3ccccc32)c1
The melting point of the first is higher: 304 to 306 °C for the first, 68 to 71 °C for the second.

First: COC(=O)C1CCc2cc(F)cc(C(F)(F)F)c2O1 (configuration not stated)
Second: FC(F)(F)c1nnc2c3cc4c(cc3ccn12)OCO4
The melting point of the first is lower: 71.8 °C for the first, 187 to 189 °C for the second.

First: CCN1c2ccccc2Sc2ccccc21
Second: N#Cc1c(Cl)ccc2ccccc12
The melting point of the first is higher: 103 to 104 °C for the first, 82 to 83 °C for the second.

Compared with CC(C)OC(=O)c1cc(-n2c(=O)[nH]c3c(c2=O)SCC3)c(F)cc1Cl, CN1CCN(C2=Nc3cc(Cl)ccc3Oc3cscc32)CC1 is lower in melting point: 252 to 254 °C for the first, 180 to 182 °C for the second.

Compared with COc1cc2ncc(C#N)c(Nc3ccc(C)cc3O)c2cc1OC, CC=CCNc1cc(C(=O)O)cc(S(N)(=O)=O)c1Sc1ccc(N)cc1 is lower in melting point: > 250 °C for the first, 242 °C for the second.

Compared with O=C(Cc1ccc(OCc2ccc(F)cc2)cc1)NC1(c2nn[nH]n2)Cc2ccc(-c3ccc(Cl)cc3)cc2C1 (configuration not stated), CS(=O)(=O)OCC1CC(=O)N(c2ccc(-c3ccc(C#N)cc3)cc2)C1 (configuration not stated) is higher in melting point: 108 to 110 °C for the first, 183 to 186 °C for the second.

Compared with Nc1ccc2nc(-c3ccccc3)nn2c1, CNC(=O)c1nnn(Cc2ccccc2)c1N is lower in melting point: 201 °C for the first, 151 to 153 °C for the second.

First: Fc1c(F)c(C(F)(F)F)c(F)c(F)c1Nc1nc(Cl)nc(Cl)c1Cl
Second: Clc1ccc(C(=Cc2ccc(Cl)cc2Cl)CBr)cc1
The melting point of the first is higher: 152 to 153 °C for the first, 128 °C for the second.

First: COCc1nc2c(N)cc(Br)cc2n1C
Second: O=C1CSCN1CC#CCN1CCC(n2c(=O)[nH]c3ccccc32)CC1
The melting point of the first is lower: 138 to 140 °C for the first, 202 to 204 °C for the second.
